Reference: patent publication US20190083521A1, “COMBINATION THERAPY FOR TREATING CANCER” (Epizyme, Inc., priority 2014, published 2019)

Legend:
[1] = tested on: ML-2 (MLL-AF6) cells; experiment: Example 7 retest: EPZ-5676 pre-treatment, second compound 72 h, Cell Titer Glo, growth inhibition; assay type: cell-based; conditions: 240 h, single agent, read-out: EPZ-5676 10-day IC50
[2] = tested on: OCI-AML-4 (MLL-ENL) cells; experiment: Example 7 primary screen: 300 nM EPZ-5676 pre-treatment, second compound 72 h, ATPLite, GI100 shift; assay type: cell-based; conditions: 264 h; OCI-AML-4; single agent; read-out: EPZ-5676 11-day (Primary screen) IC50
Method: Cells were split using EPZ-5676 or DMSO containing growth media and further incubated for an additional 3-day pre-treatment time. Cells were finally seeded in growth media containing EPZ-5676 or DMSO in 384-well plates at 500 cell/well density. Cells were then equilibrated in incubators for 24 hours before treatment with a second compound. Treated assay plates were incubated with a second compound for 72 hours. After this time, plates were developed for endpoint analysis using ATPLite to measure ATP content, which is used as an indicator of cell viability.
“N/D” means the GI100 of the second compound could not be determined for both conditions and “-” means not tested.
Growth Inhibition (GI) as a measure of cell viability: The cell viability of vehicle was measured at the time of dosing the second agent (T0) and after seventy-two hours (T72). A GI reading of 0% represents no growth inhibition—cells treated with test compound as compared to T72 vehicle signals were measured. […] A GI 200% represents complete death of all cells in the culture well. Compounds reaching an activity plateau of GI 200% are considered cytotoxic. GI is calculated by applying the following test and equation: […]

[3] = tested on: MOLM-13 (MLL-AF9) cells; experiment: Example 7 retest: EPZ-5676 pre-treatment, second compound 72 h, Cell Titer Glo, growth inhibition; assay type: cell-based; conditions: Homo sapiens, 240 h, single agent
[4] = tested on: SKM-1 (non-MLLr) cells; experiment: as above; assay type: cell-based; conditions: Homo sapiens, 240 h, single agent
[5] = tested on: MOLM-13 (MLL-AF9) cells; experiment: Combination proliferation assay with Compound A2 (CellTiter-Glo, Chou-Talalay CI); assay type: cell-based, human; conditions: MOLM-13; co-treatment model (Example 8)
Method in brief: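 Viability by CellTiter-Glo ATP luminescence; fraction affected versus DMSO controls, combination index by Chou-Talalay (CI <1 synergy, >1 antagonism).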

[6] = tested on: OCI-AML-4 (MLL-ENL) cells; experiment: Example 7 retest: EPZ-5676 pre-treatment, second compound 72 h, Cell Titer Glo, growth inhibition; assay type: cell-based; conditions: 240 h, single agent
[7] = tested on: MOLM-13 (MLL-AF9) cells; experiment: Example 7 primary screen: 300 nM EPZ-5676 pre-treatment, second compound 72 h, ATPLite, GI100 shift; assay type: cell-based, human; conditions: Homo sapiens, 264 h; MOLM-13; single agent; read-out: EPZ-5676 11-day (Primary screen) IC50
[8] = tested on: SKM-1 (non-MLLr) cells; experiment: as above; assay type: cell-based, human; conditions: Homo sapiens, 264 h; SKM-1; single agent; read-out: EPZ-5676 11-day (Primary screen) IC50
[9] = tested on: THP-1 (MLL-AF9) cells; experiment: Example 7 retest: EPZ-5676 pre-treatment, second compound 72 h, Cell Titer Glo, growth inhibition; assay type: cell-based; conditions: 240 h, single agent, read-out: EPZ-5676 10-day IC50
[10] = tested on: RS4-11 (MLL-AF4) cells; experiment: as above; assay type: cell-based; conditions: Homo sapiens, 240 h, single agent, read-out: EPZ-5676 10-day IC50

CC(C)N(C[C@H]1O[C@@H](n2cnc3c(N)ncnc32)[C@H](O)[C@@H]1O)[C@H]1C[C@@H](CCc2nc3cc(C(C)(C)C)ccc3[nH]2)C1 [Compound A2, pinometostat]
IC50 [1]: > 3000 nM | IC50 [2]: > 3000 nM | IC50 ([3]; MOLM-13 (MLL-AF9), read-out: EPZ-5676 10-day IC50): 75 nM | IC50 ([3]; MOLM-13, read-out: EPZ-5676 10-day (Retest) IC50): 75 nM | IC50 ([4]; SKM-1 (non-MLLr), read-out: EPZ-5676 10-day IC50): > 3000 nM | IC50 ([4]; SKM-1, read-out: EPZ-5676 10-day (Retest) IC50): > 3000 nM | Combination effect with T0070907 (PPAR antagonist) [5]: Synergy (Drug synergy was statistically defined by CI values less than 1) | IC50 ([6]; OCI-AML-4 (MLL-ENL), read-out: EPZ-5676 10-day IC50): > 3000 nM | IC50 ([6]; OCI-AML-4, read-out: EPZ-5676 10-day (Retest) IC50): > 3000 nM | IC50 [7]: 150 nM | IC50 [8]: > 3000 nM | IC50 [9]: > 3000 nM | IC50 [10]: > 3000 nM
